{"source": "paper PMC9012132", "about": "(Journal of medicinal chemistry, 2021)", "key": {"[1]": {"target": "BPTF bromodomain (Homo sapiens, UniProt Q12830)", "assay_type": "binding", "conditions": "AlphaScreen"}, "[2]": {"test_system": "Stratifin (Sfn)", "assay": "RT-qPCR of BPTF regulated genes in Eph4 cells, Sfn", "conditions": "5 μM, 24 h, relative to DMSO"}, "[3]": {"test_system": "4T1 breast cancer cells", "assay": "Inhibitor toxicity study in 4T1 cells", "assay_type": "cell-based, mouse"}, "[4]": {"test_system": "BPTF knockdown (KD) 4T1 cells", "assay": "Inhibitors with doxorubicin in shRNA-mediated BPTF knockdown 4T1 cells", "assay_type": "cell-based, mouse", "conditions": "inhibitor and doxorubicin, control for off-target effects"}, "[5]": {"test_system": "4T1 breast cancer cells", "assay": "Combination treatment with doxorubicin in 4T1 cells", "conditions": "combination with 50 nM doxorubicin, 4 days"}, "[6]": {"target": "BRD4(1) (Homo sapiens, UniProt O60885)", "assay": "AlphaScreen competitive inhibition assay, BRD4", "assay_type": "binding"}, "[7]": {"target": "T1, PCAF (Homo sapiens, UniProt Q92831)", "T1 sequence (Q92831 723-827 limits assumed)": "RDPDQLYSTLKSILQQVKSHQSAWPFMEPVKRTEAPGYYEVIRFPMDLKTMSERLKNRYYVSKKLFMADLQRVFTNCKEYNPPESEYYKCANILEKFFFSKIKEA", "conditions": "previously reported; cited from earlier work"}, "[8]": {"target": "T2, BRD9 (Homo sapiens, UniProt Q9H8M2)", "T2 sequence (Q9H8M2 136-240 limits assumed)": "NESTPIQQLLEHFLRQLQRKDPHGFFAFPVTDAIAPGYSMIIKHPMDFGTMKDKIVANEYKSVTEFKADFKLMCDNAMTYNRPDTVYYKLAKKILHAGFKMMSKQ", "conditions": "previously reported; cited from earlier work"}, "[9]": {"test_system": "CECR2", "conditions": "cited from earlier work"}, "[10]": {"target": "T3, 5FW-PCAF (Homo sapiens, UniProt Q92831)", "T3 sequence (Q92831 723-827)": "T1 sequence (Q92831 723-827 limits assumed)", "assay": "Protein-observed fluorine", "assay_type": "binding", "conditions": "qualitative"}, "[11]": {"target": "5FW-CECR2 (Homo sapiens, UniProt Q9BXF3)", "sequence (Q9BXF3 434-538)": "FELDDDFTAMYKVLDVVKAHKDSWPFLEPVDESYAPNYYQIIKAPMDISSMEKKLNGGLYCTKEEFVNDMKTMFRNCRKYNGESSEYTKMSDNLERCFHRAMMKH", "assay": "Protein-observed fluorine", "assay_type": "binding", "conditions": "qualitative"}, "[12]": {"target": "5FW-BRD4(1) (Homo sapiens, UniProt O60885)", "assay": "Protein-observed fluorine", "assay_type": "binding", "conditions": "qualitative"}}, "note": "Entries after “also recorded” stand apart in the source; their conditions may differ.", "data": [{"smiles": "CN(C)CCc1ccc(Nc2c(Cl)cnn(C)c2=O)cc1", "note": "[Compound 20, 5-chloro-4-((4-(2-(dimethylamino)ethyl)phenyl)amino)-2-methylpyridazin-3(2H)-one]", "values": [{"measurement": "fold weaker affinity than 18", "setting": "[1]", "result": 140, "unit": "fold"}, {"measurement": "effect on Sfn mRNA level", "setting": "[2]", "result": "not significantly affected"}]}, {"smiles": "COC(=O)c1cccc(NC(=O)NC2CCN(c3ccnc(Nc4ccc(F)cc4)n3)C2)c1", "note": "(stereo not shown) [AU1, reference compound]", "values": [{"measurement": "concentration above which sharp toxicity profile starts", "setting": "[3]", "result": "above 16 μM"}, {"measurement": "further toxicity in BPTF knockdown cells", "setting": "[4]", "result": "Additional toxicity"}, {"measurement": "effect on Sfn mRNA level", "setting": "[2]", "result": "upregulated Sfn but did not reach a high enough level of statistical significance"}, {"measurement": "sensitization of 4T1 cells to doxorubicin", "setting": "[5]", "result": "synergize"}]}, {"smiles": "CC(C)n1ncc(Nc2ccc(CN)cc2)c(Cl)c1=O", "note": "[Compound 25, 5-((4-(aminomethyl)phenyl)amino)-4-chloro-2-isopropylpyridazin-3(2H)-one]", "values": [{"measurement": "IC50", "setting": "[6]", "result": "> 250", "unit": "µM"}]}, {"smiles": "Cn1ncc(Nc2ccccc2)c(Cl)c1=O", "note": "[Compound 6, 4-chloro-2-methyl-5-(phenylamino)pyridazin-3(2H)-one]", "values": [{"measurement": "affinity for PCAF", "setting": "[7]", "result": 10, "unit": "µM"}, {"measurement": "affinity for BRD9", "setting": "[8]", "result": 2.5, "unit": "µM"}]}, {"smiles": "CN(C)CCc1ccc(Nc2cnn(C)c(=O)c2Cl)cc1", "note": "[Compound 19, 4-chloro-5-((4-(2-(dimethylamino)ethyl)phenyl)amino)-2-methylpyridazin-3(2H)-one]", "values": [{"measurement": "effect on Sfn mRNA level", "setting": "[2]", "result": "statistically significant increase"}, {"measurement": "sensitization of 4T1 cells to doxorubicin", "setting": "[5]", "result": "sensitized; also recorded: synergize"}]}, {"smiles": "CN(C)CCCOc1ccc(-c2cc(NCCCn3cccn3)nc(S(C)(=O)=O)n2)cc1", "note": "[TP-238]", "values": [{"measurement": "fold higher affinity for CECR2 over BPTF", "setting": "[9]", "result": 12, "unit": "fold"}]}, {"smiles": "Cn1ncc(Nc2ccc(CCN)cc2)c(Cl)c1=O", "note": "[Compound 18, 5-((4-(2-aminoethyl)phenyl)amino)-4-chloro-2-methylpyridazin-3(2H)-one]", "values": [{"measurement": "PrOF NMR chemical exchange regime with PCAF", "setting": "[10]", "result": "slow exchange regime"}, {"measurement": "PrOF NMR chemical exchange regime with CECR2", "setting": "[11]", "result": "intermediate chemical exchange"}, {"measurement": "PrOF NMR chemical exchange regime with BRD4(1)", "setting": "[12]", "result": "fast-intermediate exchange"}, {"measurement": "sensitization of 4T1 cells to doxorubicin", "setting": "[5]; listed as BZ1", "result": "sensitized"}]}]}
